Data on 9 compounds can be found in ChEMBL document CHEMBL1201862, “PubChem BioAssay data set” (2004).

Holding throughout (test): NCI-60 cell line screen, 48 h
In assay [1] the test system is A549.
Assay [2] relates to CAKI-1.
Assay [3] deals with CCRF-CEM.
Assay [4] concerns DMS-114.
Assay [5] concerns HOP-62.
Assay [6] concerns HT-29.
Assay [7] deals with K562.
Assay [8] relates to MOLT-4.
The test system of assay [9] is Malme-3M.
The test system of assay [10] is NCI-H460.
The test system of assay [11] is OVCAR-3.
For assay [12], the system named is OVCAR-5.
The test system of assay [13] is RPMI-8226.
Assay [14] has as its system RXF 393.
The test system of assay [15] is SF-539.
Assay [16] concerns SK-MEL-5.
For assay [17], the system named is SNB-19.
For assay [18], the system named is MCF7.
Assay [19] concerns NCI/ADR-RES.
In assay [20] the test system is T47D.

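Dose response: 5 concentrations. Exposure: 48 h. Format: 96-well plates. Endpoint: linear interpolation; highest concentration if not reached. GI50 marks 50% less growth.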 The source made the active and inactive calls. No stated cut-off is given here; in the data, active = GI50 up to about 1.1 µM and inactive = higher.

With `Cc1nc(-c2ccccc2)cc2c1c(=O)oc1ccccc12`, the GI50 in assay [1], in assay [2], in assay [3], in [4], in [5] and in [6] was > 100 µM (inactive) throughout. Also, the GI50 in assay [7], in assay [8], in assay [9], in assay [10], in [11] and in assay [12] was > 100 µM (inactive) each time. Moreover, the GI50 in assay [13], in assay [14], in assay [15], in [16] and in assay [17] was > 100 µM (inactive) in each case.
As for `Cc1cc(=O)oc2c(C3=NN(C=O)C(c4ccccc4)C3)c(O)ccc12` (stereo unspecified), the GI50 in assay [1] was 20.8 µM (inactive); in [2], > 72.1 µM (inactive); in assay [3] it was 60.5 µM (inactive); in [4] it was > 100 µM (inactive); in [5] it was 37.1 µM (inactive); in assay [6], > 80.7 µM (inactive). Also, the GI50 in assay [7] is > 91 µM (inactive); in assay [18], > 50.5 µM (inactive); in assay [8], > 73.6 µM (inactive); in assay [9], > 71.9 µM (inactive); in [10] it was 73.3 µM (inactive); in assay [19], 61.9 µM (inactive). Further, the GI50 in assay [11] is > 71.3 µM (inactive); in [12], > 87.7 µM (inactive); in assay [13] it was > 79.3 µM (inactive); in assay [14], 38.2 µM (inactive); in assay [15], 52.4 µM (inactive); in assay [16] it was 56.2 µM (inactive). Further, the values for the GI50 in assay [17] and in assay [20] were 47.4 µM (inactive) and > 100 µM (inactive), respectively.
Regarding `Cn1sc2ccccc2c1=S`, the GI50 in assay [1] is 13.9 µM (inactive); in assay [2], 11.7 µM (inactive); in assay [3] it was 2.44 µM (inactive); in assay [4], 2.58 µM (inactive); in assay [5], 16.5 µM (inactive); in assay [6], 10.7 µM (inactive). Besides, the GI50 was 3.71 µM (inactive) in [7]; 2.64 µM (inactive) in assay [18]; 4.04 µM (inactive) in assay [8]; 9.82 µM (inactive) in assay [9]; 13.8 µM (inactive) in assay [10]; 3.21 µM (inactive) in [19]. For the same compound, the GI50 is 4.2 µM (inactive) in assay [11]; 20 µM (inactive) in assay [12]; 6.73 µM (inactive) in [13]; 3.08 µM (inactive) in assay [14]; 5.83 µM (inactive) in [15]; 12.4 µM (inactive) in assay [16]. The GI50 in assay [17] was 12.2 µM (inactive).
With `O=c1[nH]c(=O)n(C2OC(CO)C(O)C2O)cc1/N=N/NCc1ccccc1` (stereo unspecified), the GI50 in assay [1] was > 100 µM (inactive); in assay [2], > 100 µM (inactive); in assay [3] it was > 69.5 µM (inactive); in [4] it was > 66.5 µM (inactive); in assay [5], > 100 µM (inactive); in [6], > 100 µM (inactive). Further, the GI50 in [7] was > 71.9 µM (inactive); in assay [8], > 100 µM (inactive); in assay [9], > 100 µM (inactive); in [10] it was > 69.2 µM (inactive); in [11], > 100 µM (inactive); in assay [12], > 100 µM (inactive). Further, the GI50 in [13] is > 59.6 µM (inactive); in assay [14], > 79.4 µM (inactive); in assay [15] it was > 100 µM (inactive); in [16] it was > 100 µM (inactive); in [17], > 100 µM (inactive).
Take `CCCCOC(=O)NC(=O)c1cn(CCCOC(=O)CCCCCCCCC(=O)OCCCn2cc(C(=O)NC(=O)OCCCC)c(=O)n(C)c2=O)c(=O)n(C)c1=O`: the GI50 in assay [1], in assay [2], in [3], in assay [4], in [5] and in assay [6] was > 100 µM (inactive) throughout. Further, the GI50 in assay [7], in assay [8], in [9], in [10], in assay [11] and in [12] was > 100 µM (inactive) each time. In addition, the GI50 in assay [13], in [14], in assay [15], in [16] and in assay [17] was > 100 µM (inactive) in each case.
For `COC(=O)C1=C(C)N(NC(=O)OC(C)(C)C)C(=O)C1=P(c1ccccc1)(c1ccccc1)c1ccccc1`, the GI50 in assay [1], in assay [2], in [3], in assay [4], in assay [5] and in assay [6] was > 100 µM (inactive) in each case. Also, the GI50 in [7] was 73.5 µM (inactive); in assay [8], 41.4 µM (inactive); in assay [9], > 100 µM (inactive); in assay [10], > 100 µM (inactive); in [11], 66.8 µM (inactive); in assay [12], > 100 µM (inactive). Also, the GI50 in [13], in assay [14], in [15], in [16] and in assay [17] was > 100 µM (inactive) in each case.
In the case of `CCN(CCO)CCNc1ccc(C)c2sc3ccccc3c(=O)c12`, the GI50 was 4.3 µM (inactive) in assay [1]; 4.73 µM (inactive) in assay [2]; 6.04 µM (inactive) in assay [3]; 7.67 µM (inactive) in [4]; 3.97 µM (inactive) in assay [5]; 2.52 µM (inactive) in assay [6]. In addition, the GI50 is 4.31 µM (inactive) in assay [7]; 1.8 µM (inactive) in [18]; 4.43 µM (inactive) in assay [8]; 3.44 µM (inactive) in assay [9]; 1.73 µM (inactive) in assay [10]; 3.07 µM (inactive) in assay [19]. In addition, the GI50 is 10.2 µM (inactive) in assay [11]; 5.15 µM (inactive) in [12]; 4.28 µM (inactive) in assay [13]; 1.25 µM (inactive) in assay [14]; 3.75 µM (inactive) in assay [15]; 2.59 µM (inactive) in assay [16]. Moreover, the GI50 is 11 µM (inactive) in assay [17] and 3.01 µM (inactive) in [20].
In the case of `CCN(CC)C1CC(O[C@H]2C[C@](O)(C(=O)CO)Cc3c(O)c4c(c(O)c32)C(=O)c2c(OC)cccc2C4=O)OC(C)C1O` (stereo partly specified), the GI50 is 0.0395 µM (active) in assay [1]; 0.232 µM (active) in assay [2]; 0.122 µM (active) in [3]; 0.0647 µM (active) in [4]; 0.0887 µM (active) in assay [5]; < 0.0252 µM (active) in assay [6]. Besides, the GI50 in assay [7] was 0.0264 µM (active); in assay [8] it was 0.0225 µM (active); in assay [9], 0.0653 µM (active); in [10] it was < 0.019 µM (active); in assay [11], 0.126 µM (active); in assay [12], 0.12 µM (active). Moreover, the GI50 in [13] was 0.0513 µM (active); in [14], 0.0446 µM (active); in assay [15], 0.0461 µM (active); in assay [16], 0.0508 µM (active); in assay [17], 0.103 µM (active).
Regarding `CCN(CC)/C(=C\Cl)Nc1ccccn1.[O-][Cl+3]([O-])([O-])O`, the GI50 in assay [1], in assay [2], in assay [3], in assay [4], in assay [5] and in assay [6] was > 100 µM (inactive) throughout. Besides, the GI50 in [7], in assay [8], in [9], in assay [10], in [11] and in assay [12] was > 100 µM (inactive) throughout. Further, the GI50 in assay [13], in assay [14], in [15], in assay [16] and in assay [17] was > 100 µM (inactive) in each case.
